This passage reports IC50, ΔTm and Kb results from ChEMBL document CHEMBL1140354, “Novel peptide derivatives of bleomycin A5: synthesis, antitumor activity and interaction with DNA” (Bioorg Med Chem Lett, 2005).

Assay [1] is described as follows: In vitro antitumor activity against human PC-3MIE8 tumor cell line. Format: functional.
Another assay has as its system BGC-823. As to the kind of experiment: In vitro antitumor activity against humanBGC-823 tumor cell line. Type of assay: functional, cell-based. Conditions: Homo sapiens.
In another assay the test system is HL-60. Nature of the assay: In vitro antitumor activity against humanHL-60 tumor cell line. Conditions: Homo sapiens. Format: functional, cell-based.
For another assay, the system named is MDA-MB-435. Nature of the assay: In vitro antitumor activity against human MDA-MB-435 tumor cell line. Type of assay: functional, cell-based.
For another assay, the system named is Nucleic Acid. Nature of the assay: Thermal denaturation alteration for calf thymus DNA (CT-DNA) binding to the compound was determined. Type of assay: functional. Particulars: Bos taurus.
The subject of another assay is Calf thymus DNA. Nature of the assay: Apparent binding constant to calf thymus DNA (CT-DNA). Type of assay: nucleic-acid assay. Conditions: Bos taurus.

Consider `Cc1c(N)nc([C@H](CC(N)=O)NC[C@H](N)C(N)=O)nc1C(=O)N[C@H](C(=O)N[C@H](C)[C@@H](O)[C@H](C)C(=O)N[C@H](C(=O)NCCc1nc(-c2nc(C(=O)NCCCNCCCCNC(=O)[C@H](N)C(C)C)cs2)cs1)[C@@H](C)O)[C@@H](O[C@@H]1O[C@@H](CO)[C@@H](O)[C@H](O)[C@@H]1O[C@H]1O[C@H](CO)[C@@H](O)[C@H](OC(N)=O)[C@@H]1O)c1c[nH]cn1`, for which the IC50 in assay [1] is 0.8 µM; in the assay with BGC-823 it was 0.8 µM; in the assay with HL-60 it was 0.31 µM; in the assay on MDA-MB-435, 0.13 µM. Besides, the shift in melting temperature (ΔTm) in the assay on Nucleic Acid turned out to be 1.1 °C. For the same compound, in the assay on Calf thymus DNA, the Kb was determined as 249000.

In the case of `Cc1c(N)nc([C@H](CC(N)=O)NC[C@H](N)C(N)=O)nc1C(=O)N[C@H](C(=O)N[C@H](C)[C@@H](O)[C@H](C)C(=O)N[C@H](C(=O)NCCc1nc(-c2nc(C(=O)NCCCNCCCCNC(=O)[C@H](N)CC(C)C)cs2)cs1)[C@@H](C)O)[C@@H](O[C@@H]1O[C@@H](CO)[C@@H](O)[C@H](O)[C@@H]1O[C@H]1O[C@H](CO)[C@@H](O)[C@H](OC(N)=O)[C@@H]1O)c1c[nH]cn1`, the IC50 in assay [1] was determined as 1.27 µM; in the assay with BGC-823 it was 0.73 µM; in the assay on HL-60, 0.37 µM; in the assay with MDA-MB-435 it was 0.17 µM. Further, the shift in melting temperature (ΔTm) in the assay with Nucleic Acid was 1.5 °C. The Kb in the assay with Calf thymus DNA was 283000.

With `Cc1c(N)nc([C@H](CC(N)=O)NC[C@H](N)C(N)=O)nc1C(=O)N[C@H](C(=O)N[C@H](C)[C@@H](O)[C@H](C)C(=O)N[C@H](C(=O)NCCc1nc(-c2nc(C(=O)NCCCNCCCCNC(=O)[C@H](CCCCN)NC(=O)[C@@H](CC(C)C)NC(=O)[C@@H](N)C(C)C)cs2)cs1)[C@@H](C)O)[C@@H](O[C@@H]1O[C@@H](CO)[C@@H](O)[C@H](O)[C@@H]1O[C@H]1O[C@H](CO)[C@@H](O)[C@H](OC(N)=O)[C@@H]1O)c1c[nH]cn1`, the IC50 in assay [1] was 1.14 µM; in the assay on BGC-823, 0.6 µM; in the assay with HL-60, 0.07 µM; with MDA-MB-435, 0.07 µM. Further, the ΔTm with Nucleic Acid turned out to be 4.7 °C. Further, the Kb with Calf thymus DNA came to 496000.

Turning to `Cc1c(N)nc([C@H](CC(N)=O)NC[C@H](N)C(N)=O)nc1C(=O)N[C@H](C(=O)N[C@H](C)[C@@H](O)[C@H](C)C(=O)N[C@H](C(=O)NCCc1nc(-c2nc(C(=O)NCCCNCCCCNC(=O)[C@H](CC(C)C)NC(=O)[C@@H](N)C(C)C)cs2)cs1)[C@@H](C)O)[C@@H](O[C@@H]1O[C@@H](CO)[C@@H](O)[C@@H](O)[C@@H]1O[C@H]1O[C@H](CO)[C@@H](O)[C@H](OC(N)=O)[C@@H]1O)c1c[nH]cn1`, the IC50 in assay [1] came out at 1.32 µM; with BGC-823, 0.87 µM; in the assay on HL-60, 0.63 µM; in the assay on MDA-MB-435, 0.32 µM. Further, the shift in melting temperature (ΔTm) in the assay with Nucleic Acid stood at 1.8 °C. The Kb in the assay on Calf thymus DNA is 423000.

On to `Cc1c(N)nc([C@H](CC(N)=O)NC[C@H](N)C(N)=O)nc1C(=O)N[C@H](C(=O)N[C@H](C)[C@@H](O)[C@H](C)C(=O)N[C@H](C(=O)NCCc1nc(-c2nc(C(=O)NCCCNCCCCNC(=O)[C@H](CC(C)C)NC(=O)[C@H](N)C(C)C)cs2)cs1)[C@@H](C)O)[C@@H](O[C@@H]1O[C@@H](CO)[C@@H](O)[C@H](O)[C@@H]1O[C@H]1O[C@H](CO)[C@@H](O)[C@H](OC(N)=O)[C@@H]1O)c1c[nH]cn1`, for which the half-inhibitory concentration (IC50) stood at 1.18 µM in assay [1], 0.93 µM in the assay on BGC-823, 0.27 µM in the assay on HL-60 and 0.09 µM in the assay with MDA-MB-435. Also, in the assay on Nucleic Acid, the ΔTm came to 0.5 °C. Besides, the Kb in the assay on Calf thymus DNA came to 260000.

For the compound `Cc1c(N)nc([C@H](CC(N)=O)NC[C@H](N)C(N)=O)nc1C(=O)N[C@H](C(=O)N[C@H](C)[C@@H](O)[C@H](C)C(=O)N[C@H](C(=O)NCCc1nc(-c2nc(C(=O)NCCCNCCCCNC(=O)[C@H](N)CCCCN)cs2)cs1)[C@@H](C)O)[C@@H](O[C@@H]1O[C@@H](CO)[C@@H](O)[C@H](O)[C@@H]1O[C@H]1O[C@H](CO)[C@@H](O)[C@H](OC(N)=O)[C@@H]1O)c1c[nH]cn1`, the IC50 in assay [1] worked out at 1.08 µM; in the assay on BGC-823 it was 0.92 µM; with HL-60, 0.51 µM; with MDA-MB-435, 0.1 µM. For the same compound, in the assay on Nucleic Acid, the ΔTm amounted to 8.4 °C. The Kb with Calf thymus DNA was determined as 559000.

As to `Cc1c(N)nc([C@H](CC(N)=O)NC[C@H](N)C(N)=O)nc1C(=O)N[C@H](C(=O)N[C@H](C)[C@@H](O)[C@H](C)C(=O)N[C@H](C(=O)NCCc1nc(-c2nc(C(=O)NCCCNCCCCNC(=O)[C@H](CCCCN)NC(=O)[C@H](N)C(C)C)cs2)cs1)[C@@H](C)O)[C@@H](O[C@@H]1O[C@@H](CO)[C@@H](O)[C@H](O)[C@@H]1O[C@H]1O[C@H](CO)[C@@H](O)[C@H](OC(N)=O)[C@@H]1O)c1c[nH]cn1`, the half-maximal inhibitory concentration (IC50) worked out at 1.91 µM in assay [1], 1.17 µM in the assay on BGC-823, 0.74 µM with HL-60 and 0.1 µM in the assay with MDA-MB-435. Also, the thermal shift (ΔTm) in the assay with Nucleic Acid came out at 5.9 °C. Further, the Kb in the assay on Calf thymus DNA amounted to 408000.

Take `Cc1c(N)nc([C@H](CC(N)=O)NC[C@H](N)C(N)=O)nc1C(=O)N[C@H](C(=O)N[C@H](C)[C@@H](O)[C@H](C)C(=O)N[C@H](C(=O)NCCc1nc(-c2nc(C(=O)NCCCNCCCCNC(=O)[C@H](CCCCN)NC(=O)[C@@H](N)C(C)C)cs2)cs1)[C@@H](C)O)[C@@H](O[C@@H]1O[C@@H](CO)[C@@H](O)[C@H](O)[C@@H]1O[C@H]1O[C@H](CO)[C@@H](O)[C@H](OC(N)=O)[C@@H]1O)c1c[nH]cn1`: the concentration for half-maximal inhibition (IC50) in assay [1] worked out at 3.32 µM; with BGC-823, 1.01 µM; in the assay on HL-60, 0.98 µM; in the assay on MDA-MB-435 it was 0.22 µM. Moreover, the ΔTm with Nucleic Acid was determined as 7 °C. Moreover, in the assay with Calf thymus DNA, the Kb was found to be 463000.

For `Cc1c(N)nc([C@H](CC(N)=O)NC[C@H](N)C(N)=O)nc1C(=O)N[C@H](C(=O)N[C@H](C)[C@@H](O)[C@H](C)C(=O)N[C@H](C(=O)NCCc1nc(-c2nc(C(=O)NCCCNCCCCNC(=O)[C@@H](N)C(C)C)cs2)cs1)[C@@H](C)O)[C@@H](O[C@@H]1O[C@@H](CO)[C@@H](O)[C@H](O)[C@@H]1O[C@H]1O[C@H](CO)[C@@H](O)[C@H](OC(N)=O)[C@@H]1O)c1c[nH]cn1`, the IC50 in assay [1] came out at 1.83 µM; in the assay with BGC-823, 1.39 µM; with HL-60 it was 0.66 µM; with MDA-MB-435 it was 0.13 µM. Besides, the ΔTm in the assay with Nucleic Acid amounted to 1.9 °C. Besides, the Kb in the assay with Calf thymus DNA came to 325000.

Take `Cc1c(N)nc([C@H](CC(N)=O)NC[C@H](N)C(N)=O)nc1C(=O)N[C@H](C(=O)N[C@H](C)[C@@H](O)[C@H](C)C(=O)N[C@H](C(=O)NCCc1nc(-c2nc(C(=O)NCCCNCCCCN)cs2)cs1)[C@@H](C)O)[C@@H](O[C@@H]1O[C@@H](CO)[C@@H](O)[C@@H](O)[C@@H]1O[C@H]1O[C@H](CO)[C@@H](O)[C@H](OC(N)=O)[C@@H]1O)c1c[nH]cn1`: the half-inhibitory concentration (IC50) in assay [1] amounted to 1.48 µM; with BGC-823, 1.25 µM; in the assay with HL-60, 0.25 µM; in the assay on MDA-MB-435 it was 1.64 µM. Besides, the ΔTm in the assay with Nucleic Acid was determined as 2.9 °C. Besides, the Kb in the assay on Calf thymus DNA was found to be 457000.

What is called IC50 is the concentration that gives 50% inhibition. Low values mean inhibition by little substance, high ones a need for much substance. One may read the ΔTm as the shift of the melting midpoint relative to a reference.
